Values of other authors as cited in patent EP0668291A2, “Mammalian augmenter of liver regenerating and variants thereof” (Toyo Boseki Kabushiki Kaisha, priority 1994, dated 1995).

System: hepatocytes
Details: earlier work

In the case of N[C@@H](Cc1cc(I)c(Oc2ccc(O)c(I)c2)c(I)c1)C(=O)O [thyroxin T3, tri-iodothyronine], the hepatotrophic effect is given as “weakly hepatotrophic”.
